Like-named read-outs stand apart in the source and are kept apart here.
What was measured:
[1] = ref Verheijen et al., 2017, cited from earlier work
[2] = cited from earlier work
[3] = ref Fink, 2020; cited from earlier work
[4] = system: BCRP1; design: method as in Minocha et al., 2012; Boudou-Rouquette et al., 2016; details: in vitro; ref Minocha et al., 2012; Boudou-Rouquette et al., 2016; cited from earlier work
[5] = system: Caco-2 cell; design: method as in Food and Drug Administration, 2009; details: ref Food and Drug Administration, 2009; cited from earlier work
[6] = Physicochemical parameters (literature / model input); details: mean value of literature values, used in the model
[7] = cited from earlier work; remark: listed apart in the source
[8] = cited from earlier work; remark: listed apart in the source
[9] = 50 mg OD for 21 consecutive days, Day 1, ref Hurwitz et al., 2009
[10] = 50 mg OD for 21 consecutive days, Day 22, ref Hurwitz et al., 2009
[11] = 100 mg OD for 21 consecutive days, Day 1, ref Hurwitz et al., 2009
[12] = 100 mg OD for 21 consecutive days, Day 22, ref Hurwitz et al., 2009
[13] = 200 mg OD for 21 consecutive days, Day 1, ref Hurwitz et al., 2009
[14] = 200 mg OD for 21 consecutive days, Day 22, ref Hurwitz et al., 2009
[15] = 300 mg twice daily for 21 consecutive days, Day 1, ref Hurwitz et al., 2009
[16] = 300 mg twice daily for 21 consecutive days, Day 22, ref Hurwitz et al., 2009
[17] = 400 mg OD for 21 consecutive days, Day 1, ref Hurwitz et al., 2009
[18] = 400 mg OD for 21 consecutive days, Day 22, ref Hurwitz et al., 2009
[19] = 400 mg oral suspension, ref Heath et al., 2012
[20] = 400 mg tablet, arithmetic mean (range), ref Deng et al., 2013
[21] = 400 mg twice daily for 21 consecutive days, Day 1, ref Hurwitz et al., 2009

LogP [6]: 3.49
SMILES: Cc1ccc(Nc2nccc(N(C)c3ccc4c(C)n(C)nc4c3)n2)cc1S(N)(=O)=O [PAZ, pazopanib]
fup, fraction of free drug in plasma [1]: 0.011% ([Verheijen et al., 2017])
fup, fraction of free drug in plasma ([1]; value used in the model): 0.00011
Mean oral bioavailability ([2]; oral 800 mg dose in humans, ref Deng et al., 2013): approximately 21.4%
Elimination via feces, administered radioactivity dose ([2]; ref Deng et al., 2013): approximately 82.2%
Elimination via feces, unchanged drug ([2]; ref Deng et al., 2013): 67%
Renal elimination, of the administered dose ([2]; ref Deng et al., 2013): approximately 2.6%
Higher bioavailability of 400 mg dose than 800 mg dose ([2]; ref Food and Drug Administration, 2009): 40%
Permeability [3]: highly permeable
Substrate for BCRP1 [4]: moderate substrate
Papp, Caco-2 cell permeability [5]: 16.9 ✕10^−6 cm⋅s^−1
Increase in AUC of PAZ ([7]; co-administration with ketoconazole, ref Van Leeuwen et al., 2014): approximately 66%
Decrease in AUC of PAZ ([7]; combined with carbamazepine, ref Van Leeuwen et al., 2014): 30%
Reduction of oral bioavailability ([7]; concomitant drugs that increase gastric pH, ref Budha et al., 2012): approximately 39%
Increase in AUC of PAZ ([7]; with lapatinib, ref Van Leeuwen et al., 2014): 59%
AUC0-24, Observation [8, 9]: 51.8 µg·h/mL
Cmax, Observation [8, 9]: 3.3 µg/mL
Ctrough, Observation [8, 9]: 1500 ng/mL
Tmax, Observation [8, 9]: 3.0 h
AUC504-528, Observation [8, 10]: 157.7 µg·h/mL
Cmax, Observation [8, 10]: 8.4 µg/mL
Ctrough, Observation [8, 10]: 5100 ng/mL
Tmax, Observation [8, 10]: 3.0 h
AUC0-24, Observation [8, 11]: 96.9 µg·h/mL
Cmax, Observation [8, 11]: 6.5 µg/mL
Ctrough, Observation [8, 11]: 2800 ng/mL
Tmax, Observation [8, 11]: 4.0 h
AUC504-528, Observation [8, 12]: 160.7 µg·h/mL
Cmax, Observation [8, 12]: 11.0 µg/mL
Ctrough, Observation [8, 12]: 4900 ng/mL
Tmax, Observation [8, 12]: 8.0 h
AUC0-24, Observation [8, 13]: 104.5 µg·h/mL
Cmax, Observation [8, 13]: 7.5 µg/mL
Ctrough, Observation [8, 13]: 2900 ng/mL
Tmax, Observation [8, 13]: 3.0 h
AUC504-528, Observation [8, 14]: 384.8 µg·h/mL
Cmax, Observation [8, 14]: 23.7 µg/mL
Ctrough, Observation [8, 14]: 12400 ng/mL
Tmax, Observation [8, 14]: 2.0 h
AUC0-24, Observation [8, 15]: 120.1 µg·h/mL
Cmax, Observation [8, 15]: 8.4 µg/mL
Ctrough, Observation [8, 15]: 4100 ng/mL
Tmax, Observation [8, 15]: 4.0 h
Cmax, Observation [8, 16]: 36.7 µg/mL
Ctrough, Observation [8, 16]: 29500 ng/mL
Tmax, Observation [8, 16]: 4.0 h
AUC0-24, Observation [8, 17]: 142.8 µg·h/mL
Cmax, Observation [8, 17]: 10.3 µg/mL
Ctrough, Observation [8, 17]: 3900 ng/mL
Tmax, Observation [8, 17]: 4.0 h
AUC504-528, Observation [8, 18]: 447.1 µg·h/mL
Cmax, Observation [8, 18]: 21.8 µg/mL
Ctrough, Observation [8, 18]: 10400 ng/mL
Tmax, Observation [8, 18]: 3.0 h
AUC0-72, Observation [8, 19]: 471.1 (NC) μg h mL^−1
C24, Observation [8, 19]: 7.8 (NC) μg mL^−1
Cmax, Observation [8, 19]: 12.7 (NC) μg mL^−1
Tmax, Observation [8, 19]: 2.7 (NC) h
AUC0-72, Observation [8, 20]: 335.2 (259–582) μg h mL^−1
Cmax, Observation [8, 20]: 10.8 (7.3–12.5) μg mL^−1
Tmax, Observation [8, 20]: 8.0 (4.0–10.0) h
C24, Observation ([8]; 400 mg tablet, ref Deng et al., 2013): 5.8 (NC) μg mL^−1
AUC0-24, Observation [8, 21]: 365.4 µg·h/mL
Cmax, Observation [8, 21]: 6.5 µg/mL
Ctrough, Observation [8, 21]: 3300 ng/mL
Tmax, Observation [8, 21]: 3.0 h
